# Data taken from patent US6689773B2, “Uracil substituted phenyl sulfamoyl carboxamides” (BASF Aktiengesellschaft, priority 2000, dated 2004).
# How the values were obtained:
# Type in all cases: in vivo
# [1] = test system: CHEAL, Lambsquarters, Chenopodium album, L. Common; test: Preemergence herbicidal evaluation (Example 148); conditions: rating scale 0-9, two to four weeks after treatment
# Summary of the method: (§1)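 Applied: aqueous acetone solution, ~0.125–0.250 kg/ha, sprayed on soil just after seeding. Read: visual plant appearance against control, 2–4 weeks post-spray.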
# [2] = test system: ECHCG, Barnyardgrass, Echinochloa crusgalli, (L.)Beau; test: Preemergence herbicidal evaluation (Example 148); conditions: rating scale 0-9, two to four weeks after treatment
# Summary of the method: as §1
# [3] = test system: AMBEL, Ragweed, Common, Ambrosia artemiisifolia, L.; test: Preemergence herbicidal evaluation (Example 148); conditions: rating scale 0-9, two to four weeks after treatment
# Summary of the method: as §1
# [4] = test system: DIGSA, Crabgrass, (Hairy) L, Digitaria sanguinalis, (L)Scop; test: Preemergence herbicidal evaluation (Example 148); conditions: rating scale 0-9, two to four weeks after treatment
# Summary of the method: as §1
# [5] = test system: TRZAW, Winter wheat, Tritium Aestivum, L. (Winter); test: Preemergence herbicidal evaluation (Example 148); conditions: rating scale 0-9, two to four weeks after treatment
# Summary of the method: as §1
# [6] = test system: IPOHE, Morningglory, Ivyleaf, Ipomoea hederacea, (L)Jacq.; test: Preemergence herbicidal evaluation (Example 148); conditions: rating scale 0-9, two to four weeks after treatment
# Summary of the method: as §1
# [7] = test system: ABUTH, Velvetleaf, Abutilon theophrasti, Medic.; test: Preemergence herbicidal evaluation (Example 148); conditions: rating scale 0-9, two to four weeks after treatment
# Summary of the method: as §1
# [8] = test system: GLXMA, Soybean, Glycine max, (L.) Merr.; test: Preemergence herbicidal evaluation (Example 148); conditions: rating scale 0-9, two to four weeks after treatment
# Summary of the method: as §1
# [9] = test system: XANST, Cocklebur, Xanthium strumariam; test: Preemergence herbicidal evaluation (Example 148); conditions: rating scale 0-9, two to four weeks after treatment
# Summary of the method: as §1
# [10] = test system: ZEAMX, Field corn, Zea mays L.; test: Preemergence herbicidal evaluation (Example 148); conditions: rating scale 0-9, two to four weeks after treatment
# Summary of the method: as §1
# [11] = test system: SETVI, Green foxtail, Setaria viridis, (L.)Beau; test: Preemergence herbicidal evaluation (Example 148); conditions: rating scale 0-9, two to four weeks after treatment
# Summary of the method: as §1
# [12] = test system: ALOMY, Blackgrass, Alopecurus myosuroides; test: Preemergence herbicidal evaluation (Example 148); conditions: rating scale 0-9, two to four weeks after treatment
# Summary of the method: as §1
# [13] = test system: CHEAL, Lambsquarters, Chenopodium album, L. Common; test: Postemergence herbicidal evaluation (Example 147); conditions: rating scale 0-9, two to three weeks after treatment
# Summary of the method: (§2)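 Plants at about two weeks from sowing received a foliar spray of test compound equivalent to roughly 0.016 to 0.032 kg per hectare. The carrier was 80/20 acetone/water containing 1.0% methylated seed oil. Injury was scored on a 0-9 visual scale two to three weeks later.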
# [14] = test system: ECHCG, Barnyardgrass, Echinochloa crusgalli, (L.)Beau; test: Postemergence herbicidal evaluation (Example 147); conditions: rating scale 0-9, two to three weeks after treatment
# Summary of the method: as §2
# [15] = test system: AMBEL, Ragweed, Common, Ambrosia artemiisifolia, L.; test: Postemergence herbicidal evaluation (Example 147); conditions: rating scale 0-9, two to three weeks after treatment
# Summary of the method: as §2
# [16] = test system: DIGSA, Crabgrass, (Hairy) L, Digitaria sanguinalis, (L)Scop; test: Postemergence herbicidal evaluation (Example 147); conditions: rating scale 0-9, two to three weeks after treatment
# Summary of the method: as §2
# [17] = test system: TRZAW, Winter wheat, Tritium Aestivum, L. (Winter); test: Postemergence herbicidal evaluation (Example 147); conditions: rating scale 0-9, two to three weeks after treatment
# Summary of the method: as §2
# [18] = test system: IPOHE, Morningglory, Ivyleaf, Ipomoea hederacea, (L)Jacq.; test: Postemergence herbicidal evaluation (Example 147); conditions: rating scale 0-9, two to three weeks after treatment
# Summary of the method: as §2
# [19] = test system: ABUTH, Velvetleaf, Abutilon theophrasti, Medic.; test: Postemergence herbicidal evaluation (Example 147); conditions: rating scale 0-9, two to three weeks after treatment
# Summary of the method: as §2
# [20] = test system: GLXMA, Soybean, Glycine max, (L.) Merr.; test: Postemergence herbicidal evaluation (Example 147); conditions: rating scale 0-9, two to three weeks after treatment
# Summary of the method: as §2
# [21] = test system: XANST, Cocklebur, Xanthium strumariam; test: Postemergence herbicidal evaluation (Example 147); conditions: rating scale 0-9, two to three weeks after treatment
# Summary of the method: as §2
# [22] = test system: ZEAMX, Field corn, Zea mays L.; test: Postemergence herbicidal evaluation (Example 147); conditions: rating scale 0-9, two to three weeks after treatment
# Summary of the method: as §2
# [23] = test system: SETVI, Green foxtail, Setaria viridis, (L.)Beau; test: Postemergence herbicidal evaluation (Example 147); conditions: rating scale 0-9, two to three weeks after treatment
# Summary of the method: as §2
# [24] = test system: ALOMY, Blackgrass, Alopecurus myosuroides; test: Postemergence herbicidal evaluation (Example 147); conditions: rating scale 0-9, two to three weeks after treatment
# Summary of the method: as §2
structure (smiles),measurement,setting,value
CCCCN(C)S(=O)(=O)NC(=O)c1cc(-n2c(=O)cc(C(F)(F)F)n(C)c2=O)c(F)cc1Cl [Example 83],Preemergence herbicidal rating CHEAL,[1]; rate 0.125 kg/ha,9.0
same,Preemergence herbicidal rating CHEAL,[1]; rate 0.25 kg/ha,9.0
same,Preemergence herbicidal rating ECHCG,[2]; rate 0.125 kg/ha,4.0
same,Preemergence herbicidal rating ECHCG,[2]; rate 0.25 kg/ha,5.0
same,Preemergence herbicidal rating AMBEL,[3]; rate 0.125 kg/ha,8.0
same,Preemergence herbicidal rating AMBEL,[3]; rate 0.25 kg/ha,8.0
same,Preemergence herbicidal rating DIGSA,[4]; rate 0.125 kg/ha,1.0
same,Preemergence herbicidal rating DIGSA,[4]; rate 0.25 kg/ha,9.0
same,Preemergence herbicidal rating TRZAW,[5]; rate 0.125 kg/ha,0.0
same,Preemergence herbicidal rating TRZAW,[5]; rate 0.25 kg/ha,0.0
same,Preemergence herbicidal rating IPOHE,[6]; rate 0.125 kg/ha,7.0
same,Preemergence herbicidal rating IPOHE,[6]; rate 0.25 kg/ha,8.0
same,Preemergence herbicidal rating ABUTH,[7]; rate 0.125 kg/ha,8.0
same,Preemergence herbicidal rating ABUTH,[7]; rate 0.25 kg/ha,9.0
same,Preemergence herbicidal rating GLXMA,[8]; rate 0.125 kg/ha,1.0
same,Preemergence herbicidal rating GLXMA,[8]; rate 0.25 kg/ha,4.0
same,Preemergence herbicidal rating XANST,[9]; rate 0.125 kg/ha,4.0
same,Preemergence herbicidal rating XANST,[9]; rate 0.25 kg/ha,5.0
same,Preemergence herbicidal rating ZEAMX,[10]; rate 0.125 kg/ha,0.0
same,Preemergence herbicidal rating ZEAMX,[10]; rate 0.25 kg/ha,2.0
same,Preemergence herbicidal rating SETVI,[11]; rate 0.125 kg/ha,3.0
same,Preemergence herbicidal rating SETVI,[11]; rate 0.25 kg/ha,6.0
same,Preemergence herbicidal rating ALMOY,[12]; rate 0.125 kg/ha,0.0
same,Preemergence herbicidal rating ALMOY,[12]; rate 0.25 kg/ha,0.0
same,Postemergence herbicidal rating CHEAL,[13]; rate 0.016 kg/ha,5.0
same,Postemergence herbicidal rating CHEAL,[13]; rate 0.032 kg/ha,5.0
same,Postemergence herbicidal rating ECHCG,[14]; rate 0.016 kg/ha,8.0
same,Postemergence herbicidal rating ECHCG,[14]; rate 0.032 kg/ha,8.0
same,Postemergence herbicidal rating AMBEL,[15]; rate 0.016 kg/ha,6.0
same,Postemergence herbicidal rating AMBEL,[15]; rate 0.032 kg/ha,8.0
same,Postemergence herbicidal rating DIGSA,[16]; rate 0.016 kg/ha,3.0
same,Postemergence herbicidal rating DIGSA,[16]; rate 0.032 kg/ha,4.0
same,Postemergence herbicidal rating TRZAW,[17]; rate 0.016 kg/ha,4.5
same,Postemergence herbicidal rating TRZAW,[17]; rate 0.032 kg/ha,5.5
same,Postemergence herbicidal rating IPOHE,[18]; rate 0.016 kg/ha,8.0
same,Postemergence herbicidal rating IPOHE,[18]; rate 0.032 kg/ha,9.0
same,Postemergence herbicidal rating ABUTH,[19]; rate 0.016 kg/ha,9.0
same,Postemergence herbicidal rating ABUTH,[19]; rate 0.032 kg/ha,9.0
same,Postemergence herbicidal rating GLXMA,[20]; rate 0.016 kg/ha,7.0
same,Postemergence herbicidal rating GLXMA,[20]; rate 0.032 kg/ha,7.5
same,Postemergence herbicidal rating XANST,[21]; rate 0.016 kg/ha,9.0
same,Postemergence herbicidal rating XANST,[21]; rate 0.032 kg/ha,9.0
same,Postemergence herbicidal rating ZEAMX,[22]; rate 0.016 kg/ha,5.5
same,Postemergence herbicidal rating ZEAMX,[22]; rate 0.032 kg/ha,6.0
same,Postemergence herbicidal rating SETVI,[23]; rate 0.016 kg/ha,7.0
same,Postemergence herbicidal rating SETVI,[23]; rate 0.032 kg/ha,8.0
same,Postemergence herbicidal rating ALMOY,[24]; rate 0.016 kg/ha,0.0
same,Postemergence herbicidal rating ALMOY,[24]; rate 0.032 kg/ha,1.0
C#CCN(C)S(=O)(=O)NC(=O)c1cc(-n2c(=O)cc(C(F)(F)F)n(C)c2=O)c(F)cc1Cl [Example 57],Preemergence herbicidal rating CHEAL,[1]; rate 0.125 kg/ha,6.0
same,Preemergence herbicidal rating CHEAL,[1]; rate 0.25 kg/ha,8.0
same,Preemergence herbicidal rating ECHCG,[2]; rate 0.125 kg/ha,1.0
same,Preemergence herbicidal rating ECHCG,[2]; rate 0.25 kg/ha,2.0
same,Preemergence herbicidal rating AMBEL,[3]; rate 0.125 kg/ha,2.0
same,Preemergence herbicidal rating AMBEL,[3]; rate 0.25 kg/ha,2.0
same,Preemergence herbicidal rating DIGSA,[4]; rate 0.125 kg/ha,1.0
same,Preemergence herbicidal rating DIGSA,[4]; rate 0.25 kg/ha,3.0
same,Preemergence herbicidal rating TRZAW,[5]; rate 0.125 kg/ha,0.0
same,Preemergence herbicidal rating TRZAW,[5]; rate 0.25 kg/ha,0.0
same,Preemergence herbicidal rating IPOHE,[6]; rate 0.125 kg/ha,0.0
same,Preemergence herbicidal rating IPOHE,[6]; rate 0.25 kg/ha,3.0
same,Preemergence herbicidal rating ABUTH,[7]; rate 0.125 kg/ha,2.0
same,Preemergence herbicidal rating ABUTH,[7]; rate 0.25 kg/ha,2.0
same,Preemergence herbicidal rating GLXMA,[8]; rate 0.125 kg/ha,0.0
same,Preemergence herbicidal rating GLXMA,[8]; rate 0.25 kg/ha,1.0
same,Preemergence herbicidal rating XANST,[9]; rate 0.125 kg/ha,0.0
same,Preemergence herbicidal rating XANST,[9]; rate 0.25 kg/ha,0.0
same,Preemergence herbicidal rating ZEAMX,[10]; rate 0.125 kg/ha,0.0
same,Preemergence herbicidal rating ZEAMX,[10]; rate 0.25 kg/ha,0.0
same,Preemergence herbicidal rating SETVI,[11]; rate 0.125 kg/ha,0.0
same,Preemergence herbicidal rating SETVI,[11]; rate 0.25 kg/ha,1.0
same,Preemergence herbicidal rating ALMOY,[12]; rate 0.125 kg/ha,0.0
same,Preemergence herbicidal rating ALMOY,[12]; rate 0.25 kg/ha,0.0
same,Postemergence herbicidal rating CHEAL,[13]; rate 0.016 kg/ha,1.0
same,Postemergence herbicidal rating CHEAL,[13]; rate 0.032 kg/ha,2.0
same,Postemergence herbicidal rating ECHCG,[14]; rate 0.016 kg/ha,1.0
same,Postemergence herbicidal rating ECHCG,[14]; rate 0.032 kg/ha,2.0
same,Postemergence herbicidal rating AMBEL,[15]; rate 0.016 kg/ha,1.0
same,Postemergence herbicidal rating AMBEL,[15]; rate 0.032 kg/ha,2.0
same,Postemergence herbicidal rating DIGSA,[16]; rate 0.016 kg/ha,1.0
same,Postemergence herbicidal rating DIGSA,[16]; rate 0.032 kg/ha,2.0
same,Postemergence herbicidal rating TRZAW,[17]; rate 0.016 kg/ha,2.0
same,Postemergence herbicidal rating TRZAW,[17]; rate 0.032 kg/ha,2.5
same,Postemergence herbicidal rating IPOHE,[18]; rate 0.016 kg/ha,6.0
same,Postemergence herbicidal rating IPOHE,[18]; rate 0.032 kg/ha,4.0
same,Postemergence herbicidal rating ABUTH,[19]; rate 0.016 kg/ha,2.0
same,Postemergence herbicidal rating ABUTH,[19]; rate 0.032 kg/ha,5.0
same,Postemergence herbicidal rating GLXMA,[20]; rate 0.016 kg/ha,6.0
same,Postemergence herbicidal rating GLXMA,[20]; rate 0.032 kg/ha,6.5
same,Postemergence herbicidal rating XANST,[21]; rate 0.016 kg/ha,2.0
same,Postemergence herbicidal rating XANST,[21]; rate 0.032 kg/ha,3.0
same,Postemergence herbicidal rating ZEAMX,[22]; rate 0.016 kg/ha,2.0
same,Postemergence herbicidal rating ZEAMX,[22]; rate 0.032 kg/ha,5.0
same,Postemergence herbicidal rating SETVI,[23]; rate 0.016 kg/ha,1.0
same,Postemergence herbicidal rating SETVI,[23]; rate 0.032 kg/ha,3.0
same,Postemergence herbicidal rating ALMOY,[24]; rate 0.016 kg/ha,0.0
same,Postemergence herbicidal rating ALMOY,[24]; rate 0.032 kg/ha,1.0
